Measurements published in ChEMBL document CHEMBL1140714, “In search of novel agents for therapy of tropical diseases and human immunodeficiency virus” (J Med Chem, 2008).
The source made the active and inactive calls. The rule behind the calls is not given here.

System: Plasmodium falciparum
Test: Antiplasmodial activity against chloroquine-resistant Plasmodium falciparum
Type: functional, organism-based
Settings: not given

Row | Structure (SMILES) | IC50 [µM]
1 | NC(Cn1ccc(=O)c(O)c1)C(=O)O (stereo unspecified) [MIMOSINE] | 39
2 | N[C@@H](Cn1ccc(=O)c(O)c1)C(=O)O [L-MIMOSINE] | 39

System: Staphylococcus aureus
Test: Antibacterial activity against Staphylococcus aureus assessed as inhibition of biofilm formation
Type: functional, organism-based
Settings: not given

Row | Structure (SMILES) | Activity
3 | COC(=O)C1C(=O)C(C(=O)OC)[C@H](c2ccccn2)N(Cc2ccccn2)[C@@H]1c1ccccn1 (stereo partly specified) | inactive
4 | COC(=O)C1=C(O)C[C@H](c2ccccn2)N(Cc2ccc(Cl)cc2)[C@@H]1c1ccccn1 | inactive
5 | COC(=O)C1C(=O)C(C(=O)OC)[C@H](c2ccccn2)N(CCOCCO)[C@@H]1c1ccccn1 (stereo partly specified) | inactive
6 | COC(=O)c1c(-c2ccccn2)n(Cc2ccc(C)cc2)c(-c2ccccn2)cc1=O | inactive
7 | CCC[C@@H]1CC2(C[C@H](CCC)N1)C(=O)NC(=O)N2c1ccccc1 (stereo partly specified) | inactive
8 | CC[C@@H]1CC2(C[C@@H](CC)N1)C(=O)NC(=O)N2Cc1ccccc1 (stereo partly specified) | inactive
9 | COC(=O)C1C(=O)C(C(=O)OC)[C@H](c2cccc([N+](=O)[O-])c2)N(Cc2ccc(Cl)cc2)[C@@H]1c1cccc([N+](=O)[O-])c1 (stereo partly specified) | inactive
10 | COC(=O)C1=C(O)C[C@H](c2ccccn2)N(Cc2cccc(OC)c2)[C@@H]1c1ccccn1 | inactive
11 | COC(=O)c1c(-c2ccccn2)n(Cc2ccc(Cl)cc2)c(-c2ccccn2)cc1=O | inactive

System: Plasmodium falciparum
Test: Antiplasmodial activity against Plasmodium falciparum NF54 after 72 hrs
Type: functional, organism-based
Settings: NF54, 72 h

Row | IC50 [µM] | Structure (SMILES)
12 | 12 | COC(=O)C1=C(O)C[C@H](c2ccccn2)N(Cc2ccc(Cl)cc2)[C@@H]1c1ccccn1

System: Plasmodium falciparum
Test: Antiplasmodial activity against Plasmodium falciparum NF54 after 24 hrs
Type: functional, organism-based
Settings: NF54, 24 h

Row | IC50 [µM] | Structure (SMILES)
13 | 9.1 | COC(=O)c1c(-c2ccccn2)n(Cc2ccc(C)cc2)c(-c2ccccn2)cc1=O

System: Plasmodium falciparum
Test: Antiplasmodial activity against Plasmodium falciparum NF54 after 36 hrs
Type: functional, organism-based
Settings: NF54, 36 h

Row | IC50 [µM] | Structure (SMILES)
14 | 9.4 | COC(=O)c1c(-c2ccccn2)n(Cc2ccc(Cl)cc2)c(-c2ccccn2)cc1=O

System: Plasmodium falciparum
Test: Antiplasmodial activity against Plasmodium falciparum NF54 after 48 hrs
Type: functional, organism-based
Settings: NF54, 48 h

Row | IC50 [µM] | Structure (SMILES)
15 | 1.7 | COC(=O)C1=C(O)C[C@H](c2ccccn2)N(Cc2ccc(Cl)cc2)[C@@H]1c1ccccn1
16 | 40 | COC(=O)c1c(-c2ccccn2)n(Cc2ccc(C)cc2)c(-c2ccccn2)cc1=O

System: Trypanosoma brucei brucei
Test: Antitrypanosomal activity against Trypanosoma brucei brucei TC221
Type: functional
Settings: read-out: ED50 (the source's name)

Row | Structure (SMILES) | EC50 [µM]
17 | COC(=O)C1C(=O)C(C(=O)OC)[C@H](c2ccccn2)N(Cc2ccccn2)[C@@H]1c1ccccn1 (stereo partly specified) | 4.62
18 | CCC[C@@H]1CC2(C[C@H](CCC)N1)C(=O)NC(=O)N2c1ccccc1 (stereo partly specified) | > 100
19 | CC[C@@H]1CC2(C[C@@H](CC)N1)C(=O)NC(=O)N2Cc1ccccc1 (stereo partly specified) | > 100
20 | NC(Cn1ccc(=O)c(O)c1)C(=O)O (stereo unspecified) [MIMOSINE] | > 100

Now from value to compound:

Row | EC50 [µM] | Structure (SMILES)
21 | 0.32 | COC(=O)C1=C(O)C[C@H](c2ccccn2)N(Cc2ccc(Cl)cc2)[C@@H]1c1ccccn1
22 | > 100 | COC(=O)C1=C(O)C[C@H](c2ccccn2)N(Cc2cccc(OC)c2)[C@@H]1c1ccccn1
23 | > 100 | COC(=O)c1c(-c2ccccn2)n(Cc2ccc(Cl)cc2)c(-c2ccccn2)cc1=O

System: Leishmania major
Test: Antileishmanial activity against Leishmania major MHOM/IL/81/FE/BNI infected in BALB/c mouse
Type: functional
Settings: not given

Row | Structure (SMILES) | ED50 [µM]
24 | COC(=O)C1C(=O)C(C(=O)OC)[C@H](c2ccccn2)N(Cc2ccccn2)[C@@H]1c1ccccn1 (stereo partly specified) | >100
25 | COC(=O)C1=C(O)C[C@H](c2ccccn2)N(Cc2ccc(Cl)cc2)[C@@H]1c1ccccn1 | 87.93
26 | COC(=O)C1C(=O)C(C(=O)OC)[C@H](c2ccccn2)N(CCOCCO)[C@@H]1c1ccccn1 (stereo partly specified) | 65.04
27 | CCC[C@@H]1CC2(C[C@H](CCC)N1)C(=O)NC(=O)N2c1ccccc1 (stereo partly specified) | >100
28 | CC[C@@H]1CC2(C[C@@H](CC)N1)C(=O)NC(=O)N2Cc1ccccc1 (stereo partly specified) | >100
29 | COC(=O)C1C(=O)C(C(=O)OC)[C@H](c2cccc([N+](=O)[O-])c2)N(Cc2ccc(Cl)cc2)[C@@H]1c1cccc([N+](=O)[O-])c1 (stereo partly specified) | >100
30 | COC(=O)C1=C(O)C[C@H](c2ccccn2)N(Cc2cccc(OC)c2)[C@@H]1c1ccccn1 | >100
31 | COC(=O)c1c(-c2ccccn2)n(Cc2ccc(Cl)cc2)c(-c2ccccn2)cc1=O | >100

System: not listed separately
Test: Cytotoxicity against mouse J774.1 cells after 48 hrs
Type: cell-based
Settings: read-out: ED50

Row | Structure (SMILES) | CC50 at 48 h [µM]
32 | COC(=O)C1C(=O)C(C(=O)OC)[C@H](c2ccccn2)N(Cc2ccccn2)[C@@H]1c1ccccn1 (stereo partly specified) | 29.9
33 | COC(=O)C1=C(O)C[C@H](c2ccccn2)N(Cc2ccc(Cl)cc2)[C@@H]1c1ccccn1 | 32.8
34 | COC(=O)C1C(=O)C(C(=O)OC)[C@H](c2ccccn2)N(CCOCCO)[C@@H]1c1ccccn1 (stereo partly specified) | 38.5
35 | CCC[C@@H]1CC2(C[C@H](CCC)N1)C(=O)NC(=O)N2c1ccccc1 (stereo partly specified) | 36
36 | CC[C@@H]1CC2(C[C@@H](CC)N1)C(=O)NC(=O)N2Cc1ccccc1 (stereo partly specified) | > 100
37 | COC(=O)C1C(=O)C(C(=O)OC)[C@H](c2cccc([N+](=O)[O-])c2)N(Cc2ccc(Cl)cc2)[C@@H]1c1cccc([N+](=O)[O-])c1 (stereo partly specified) | 46.6
38 | COC(=O)C1=C(O)C[C@H](c2ccccn2)N(Cc2cccc(OC)c2)[C@@H]1c1ccccn1 | > 100
39 | COC(=O)c1c(-c2ccccn2)n(Cc2ccc(Cl)cc2)c(-c2ccccn2)cc1=O | > 100

System: Plasmodium falciparum
Test: Antiplasmodial activity against chloroquine-sensitive Plasmodium falciparum
Type: functional, organism-based
Settings: not given

Row | IC50 | Structure (SMILES)
40 | Not Active | COC(=O)C1C(=O)C(C(=O)OC)[C@H](c2ccccn2)N(Cc2ccccn2)[C@@H]1c1ccccn1 (stereo partly specified)
41 | Not Active | COC(=O)C1C(=O)C(C(=O)OC)[C@H](c2ccccn2)N(CCOCCO)[C@@H]1c1ccccn1 (stereo partly specified)
42 | Not Active | CCC[C@@H]1CC2(C[C@H](CCC)N1)C(=O)NC(=O)N2c1ccccc1 (stereo partly specified)
43 | Not Active | CC[C@@H]1CC2(C[C@@H](CC)N1)C(=O)NC(=O)N2Cc1ccccc1 (stereo partly specified)

Row | Structure (SMILES) | IC50
44 | COC(=O)C1C(=O)C(C(=O)OC)[C@H](c2cccc([N+](=O)[O-])c2)N(Cc2ccc(Cl)cc2)[C@@H]1c1cccc([N+](=O)[O-])c1 (stereo partly specified) | Not Active

Same assay, conditions: Plasmodium falciparum; read-out: IC50

Row | Structure (SMILES) | IC50 [µM]
45 | NC(Cn1ccc(=O)c(O)c1)C(=O)O (stereo unspecified) [MIMOSINE] | 32
46 | N[C@@H](Cn1ccc(=O)c(O)c1)C(=O)O [L-MIMOSINE] | 32
